Source: patent publication US9409952B2, “Peptide-compound cyclization method” (Chugai Seiyaku Kabushiki Kaisha, priority 2011, dated 2016)
Read-outs that look alike come from different tables or passages of the source. Starred links: 1 amine or outer side, 2 acyl side, 3 side chain; linkers in the order of their positions; H or OH if unused. Positions of bridges follow the written chain, without caps; N, C: chain ends. Non-standard residues stand in square brackets, D forms with d. Residues, ends and D or L forms follow the SMILES beside them. *: point of attachment. NMeF = CN[C@@H](Cc1ccccc1)C(=O)O; NMeI = CC[C@H](C)[C@H](NC)C(=O)O; NMeβAla = CN(CCC(=O)[*:2])[*:1]; NMeL = CN[C@@H](CC(C)C)C(=O)O; NMeV = CN[C@H](C(=O)O)C(C)C; NMeA = CN[C@@H](C)C(=O)O; Piperidide = C1CCN(*)CC1; dNMeA = CN[C@H](C)C(=O)O; β3hA = C[C@H](N)CC(=O)O; Sar = CNCC(=O)O; tBu = CC(C)(C)*

Columns and labels:
[1] = Metabolic stability in human hepatic microsome; format: in vitro ADME; conditions: microsomes
[2] = PAMPA (parallel artificial membrane permeability assay); format: in vitro ADME; conditions: PAMPA
Summary of the method: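 Artificial membrane was 10% (w/v) egg lecithin plus 0.5% (w/v) cholesterol in dodecane on a PVDF filter. A 10 mM DMSO stock was added at 0.5% (v/v) to donor buffer (50 mM MOPSO, pH 6.5, 5.0% glycocholic acid). After 18 h at 37 °C, LC/MS or LC/UV gave donor and acceptor levels for Pe.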

[3] = pH 7.4, human hepatic microsome, NADPH(+), read-out: CL NADPH(+)
[4] = membrane permeation rate (Pe), 50 mM MOPSO buffer pH 6.5 with 5.0% glycocholic acid, 37° C., 18 hours, read-out: iPAMPA Pe

| microsomal CLint at 1 uM ([1]; human, pH 7.4, CL NADPH(+)) [µL/min/mg] | Papp at 18 hours, 50 µM ([2]; pH 6.5) [×10⁻⁶ cm/s] | SMILES | microsomal CLint at 1 uM [1, 3] [µL/min/mg] | Papp at 18 hours, 50 µM [2, 4] [×10⁻⁶ cm/s] |
| --- | --- | --- | --- | --- |
|  |  | CC(C)C[C@@H]1NC(=O)[C@H](CC(C)C)N(C)C(=O)C[C@@H](C(=O)N2CCCCC2)NC(=O)[C@H](C)N(C)C(=O)[C@H](CC(C)C)N(C)C(=O)[C@H]([C@@H](C)O)NC(=O)[C@H](Cc2ccccc2)N(C)C1=O [DP-738] ([NMeL]L[NMeF]T[NMeL][NMeA]D-Piperidide; lactam N-7) | 221 | 22 |
|  |  | CC(C)C[C@H]1C(=O)N[C@H](C(=O)N2CCCCC2)CC(=O)N[C@H](C)C(=O)N(C)[C@@H](C)C(=O)N(C)[C@@H](Cc2ccccc2)C(=O)N(C)[C@@H](CC(C)C)C(=O)N[C@@H]([C@@H](C)O)C(=O)N1C [DP-739] ([dA][NMeA][NMeF][NMeL]T[NMeL]D-Piperidide; lactam N-7) | 164 | 18 |
|  |  | CC(C)C[C@H]1C(=O)N[C@H](C(=O)N2CCCCC2)CC(=O)N[C@H](C)C(=O)N(C)[C@@H](CC(C)C)C(=O)N(C)[C@@H](Cc2ccccc2)C(=O)N(C)[C@@H](CC(C)C)C(=O)N[C@@H]([C@@H](C)O)C(=O)N1C [DP-740] ([dA][NMeL][NMeF][NMeL]T[NMeL]D-Piperidide; lactam N-7) | 483 | 31 |
|  |  | CC(C)C[C@@H]1NC(=O)[C@H](CC(C)C)N(C)C(=O)[C@H](C)N(C)C(=O)[C@H]([C@@H](C)O)NC(=O)[C@H](Cc2ccccc2)N(C)C(=O)[C@@H](C)NC(=O)C[C@@H](C(=O)N2CCCCC2)NC1=O [DP-741] ([dA][NMeF]T[NMeA][NMeL]LD-Piperidide; lactam N-7) | 169 | 10 |
|  |  | CC(C)C[C@@H]1NC(=O)[C@H]([C@@H](C)O)NC(=O)[C@H](CC(C)C)N(C)C(=O)[C@H](Cc2ccccc2)N(C)C(=O)CN(C)C(=O)[C@@H](C)NC(=O)C[C@@H](C(=O)N2CCCCC2)NC1=O [DP-742] ([dA][Sar][NMeF][NMeL]TLD-Piperidide; lactam N-7) | 175 | 15 |
|  |  | CC(C)C[C@H]1C(=O)N[C@@H](COC(C)(C)C)C(=O)N(C)[C@@H](Cc2ccccc2)C(=O)N(C)[C@@H](CC(C)C)C(=O)N[C@H](C(=O)N2CCCCC2)CC(=O)N(C)CC(=O)N[C@@H]([C@@H](C)O)C(=O)N1C [DP-743] ([Sar]T[NMeL]S(tBu)[NMeF][NMeL]D-Piperidide; lactam N-7) | 126 | 16 |
|  |  | CC(C)C[C@@H]1NC(=O)[C@H](CC(C)C)N(C)C(=O)CN(C)C(=O)[C@H]([C@@H](C)O)NC(=O)[C@H](C)N(C)C(=O)C[C@@H](C(=O)N2CCCCC2)NC(=O)[C@H](Cc2ccccc2)N(C)C1=O [DP-744] ([NMeA]T[Sar][NMeL]L[NMeF]D-Piperidide; lactam N-7) | 61 | 12 |
|  |  | CC(C)C[C@@H]1NC(=O)C[C@@H](C(=O)N2CCCCC2)NC(=O)[C@H]([C@@H](C)O)NC(=O)[C@H](CC(C)C)N(C)C(=O)CN(C)C(=O)[C@H](Cc2ccccc2)N(C)C(=O)[C@H](C)N(C)C1=O [DP-745] (L[NMeA][NMeF][Sar][NMeL]TD-Piperidide; lactam N-7) | 232 | 17 |
|  |  | CC(C)C[C@H]1C(=O)N[C@@H](COC(C)(C)C)C(=O)N(C)[C@@H](Cc2ccccc2)C(=O)N(C)[C@@H](CC(C)C)C(=O)N[C@H](C(=O)N2CCCCC2)CC(=O)N(C)CCC(=O)N[C@@H]([C@@H](C)O)C(=O)N1C [DP-746] ([NMeβAla]T[NMeL]S(tBu)[NMeF][NMeL]D-Piperidide; lactam N-7) | 318 | 47 |
|  |  | CC(C)C[C@H]1C(=O)N[C@@H]([C@@H](C)O)C(=O)N[C@@H](COC(C)(C)C)C(=O)N[C@H](C(=O)N2CCCCC2)CC(=O)N(C)CCC(=O)N(C)[C@@H](Cc2ccccc2)C(=O)N(C)[C@@H](CC(C)C)C(=O)N1C [DP-747] ([NMeβAla][NMeF][NMeL][NMeL]TS(tBu)D-Piperidide; lactam N-7) | 248 | 20 |
|  |  | CC(C)C[C@H]1C(=O)N[C@@H](COC(C)(C)C)C(=O)N[C@@H]([C@@H](C)O)C(=O)N(C)[C@@H](Cc2ccccc2)C(=O)N(C)[C@@H](CC(C)C)C(=O)N[C@H](C(=O)N2CCCCC2)CC(=O)N[C@@H](C(C)C)C(=O)N1C [DP-748] (V[NMeL]S(tBu)T[NMeF][NMeL]D-Piperidide; lactam N-7) | 341 | 45 |
|  |  | CC(C)C[C@H]1C(=O)N[C@@H]([C@@H](C)O)C(=O)N(C)[C@@H](Cc2ccccc2)C(=O)N[C@@H](COC(C)(C)C)C(=O)N[C@H](C(=O)N2CCCCC2)CC(=O)N[C@@H](C(C)C)C(=O)N(C)CC(=O)N1C [DP-749] (V[Sar][NMeL]T[NMeF]S(tBu)D-Piperidide; lactam N-7) | 56 | 17 |
|  |  | CC(C)C[C@H]1C(=O)N[C@H](C(=O)N2CCCCC2)CC(=O)N(C)CCC(=O)N[C@@H]([C@@H](C)O)C(=O)N(C)CC(=O)N[C@@H](COC(C)(C)C)C(=O)N(C)[C@@H](Cc2ccccc2)C(=O)N1C [DP-750] ([NMeβAla]T[Sar]S(tBu)[NMeF][NMeL]D-Piperidide; lactam N-7) | 49 | 13 |
|  |  | CC(C)C[C@@H]1NC(=O)[C@H](Cc2ccccc2)N(C)C(=O)[C@H](Cc2ccccc2)N(C)C(=O)[C@H]([C@@H](C)O)NC(=O)CN(C)C(=O)[C@H](C)NC(=O)C[C@@H](C(=O)N2CCCCC2)NC1=O [DP-751] (A[Sar]T[NMeF][NMeF]LD-Piperidide; lactam N-7) | 156 | 18 |
| 33 | 6.2 | CC(C)C[C@@H]1NC(=O)[C@H]([C@@H](C)O)NC(=O)[C@@H]2CCCN2C(=O)[C@H](Cc2ccccc2)NC(=O)[C@H](COC(C)(C)C)NC(=O)[C@H](CC(C)C)N(C)C(=O)[C@H](Cc2ccccc2)NC(=O)[C@@H](C)N(C)C(=O)C[C@H](C)NC(=O)CNC(=O)[C@H](C)N(C)C(=O)[C@H](C)N(C)C1=O [DP-752] (cyclo(F[NMeL]S(tBu)FPTL[NMeA][NMeA]G[β3hA][dNMeA])) |  |  |
|  |  | CC(C)C[C@@H]1NC(=O)[C@H](C)N(C)C(=O)[C@H]([C@@H](C)O)NC(=O)[C@H](Cc2ccccc2)N(C)C(=O)CNC(=O)[C@H](C(C)C)N(C)C(=O)[C@H](C(C)C)NC(=O)[C@H](C)N(C)C(=O)[C@H](Cc2ccccc2)NC(=O)[C@H](C)N(C)C(=O)[C@@H](C)N(C)C(=O)C[C@H](C)NC1=O [DP-753] (cyclo(F[NMeA]V[NMeV]G[NMeF]T[NMeA]L[β3hA][dNMeA][NMeA])) | 35 | 10 |
| 41 | 32 | CC[C@H](C)[C@H]1C(=O)NCC(=O)N[C@@H](C)CC(=O)N(C)[C@H](C)C(=O)N[C@@H](Cc2ccccc2)C(=O)N(C)[C@@H](CC(C)C)C(=O)N[C@@H](COC(C)(C)C)C(=O)N[C@@H](Cc2ccccc2)C(=O)N2CCC[C@H]2C(=O)N[C@@H]([C@@H](C)O)C(=O)N[C@@H](CC(C)C)C(=O)N(C)[C@@H](C)C(=O)N1C [DP-754] (cyclo(F[NMeL]S(tBu)FPTL[NMeA][NMeI]G[β3hA][dNMeA])) |  |  |
|  |  | CC[C@H](C)[C@H]1C(=O)NCC(=O)N(C)[C@@H](Cc2ccccc2)C(=O)N[C@@H]([C@@H](C)O)C(=O)N(C)[C@@H](C)C(=O)N[C@@H](CC(C)C)C(=O)N[C@@H](C)CC(=O)N(C)[C@H](C)C(=O)N(C)[C@@H](C)C(=O)N[C@@H](Cc2ccccc2)C(=O)N(C)[C@@H](CC(C)C)C(=O)N[C@@H](C(C)C)C(=O)N1C [DP-755] (cyclo(F[NMeL]V[NMeI]G[NMeF]T[NMeA]L[β3hA][dNMeA][NMeA])) | 144 | 36 |
| 65 | 30 | CC[C@H](C)[C@H]1C(=O)N[C@@H](C)C(=O)N(C)[C@@H](CC(C)C)C(=O)N[C@@H](COC(C)(C)C)C(=O)N(C)[C@@H](CC(C)C)C(=O)N[C@@H](C)CC(=O)N(C)CCC(=O)N[C@@H](Cc2ccccc2)C(=O)N(C)[C@@H](Cc2ccccc2)C(=O)N(C)[C@@H](CC(C)C)C(=O)N[C@@H]([C@@H](C)O)C(=O)N(C)[C@@H](C)C(=O)N1C [DP-756] (cyclo(A[NMeL]S(tBu)[NMeL][β3hA][NMeβAla]F[NMeF][NMeL]T[NMeA][NMeI])) |  |  |
| 124 | 33 | CC[C@H](C)[C@H]1C(=O)NCC(=O)N(C)[C@@H](Cc2ccccc2)C(=O)N[C@@H]([C@@H](C)O)C(=O)N(C)[C@@H](CC(C)C)C(=O)N[C@@H](CC(C)C)C(=O)N[C@@H](C)CC(=O)N(C)[C@H](C)C(=O)N(C)[C@@H](CC(C)C)C(=O)N[C@@H](Cc2ccccc2)C(=O)N(C)[C@@H](CC(C)C)C(=O)N[C@@H](C(C)C)C(=O)N1C [DP-757] (cyclo(F[NMeL]V[NMeI]G[NMeF]T[NMeL]L[β3hA][dNMeA][NMeL])) |  |  |
| 59 | 24 | CC[C@H](C)[C@H]1C(=O)N[C@@H](CC(C)C)C(=O)N(C)[C@@H](CC(C)C)C(=O)N[C@@H](COC(C)(C)C)C(=O)N(C)[C@@H](CC(C)C)C(=O)N[C@@H](C)CC(=O)N(C)CCC(=O)N[C@@H](Cc2ccccc2)C(=O)N(C)[C@@H](Cc2ccccc2)C(=O)N(C)[C@@H](CC(C)C)C(=O)N[C@@H]([C@@H](C)O)C(=O)N(C)[C@@H](C)C(=O)N1C [DP-758] (cyclo(F[NMeF][NMeL]T[NMeA][NMeI]L[NMeL]S(tBu)[NMeL][β3hA][NMeβAla])) |  |  |
